Measured values: PMC12281424, “A Rac-specific competitive inhibitor of guanine nucleotide binding reduces metastasis in triple-negative breast cancer” (Cell Reports Medicine, 2025)

Legend:
CLIK1(h) = CLIK1(h) (Homo sapiens, UniProt Q8TDR2); assay: Kinase Profiler; format: biochemical
Method: (§3) The kinase profiler was performed by the company Eurofins (Discovery, Panlab and Cerep).

IGF-1R(h) = IGF-1R(h) (Homo sapiens, UniProt P08069); assay: Kinase Profiler; format: biochemical
Method: (§4) Blood cell counts, kinase profiler, safety screen, bacterial cytotoxicity, Ames, micronucleus assays were performed by the company Eurofins (France). The kinase profiler was performed by the company Eurofins (Discovery, Panlab and Cerep).

RAC1b = molecular target: T1, RAC1b (Homo sapiens, UniProt P63000); assay: RAC-GTP pull-down in transfected NIH-3T3 fibroblasts; format: cell-based; conditions: 10^-5 M
T1 construct: expressed in transfected cells; host or cells: NIH-3T3 fibroblasts
Method: (§1) Figure 4 A41 selectively impairs RAC protein activation (A) Representative surface plasmon resonance (SPR) sensograms of binding of immobilized RHOA or CDC42 with indicated increasing concentrations of A41 (N > 3). (B) Effect of A41 on GEF-stimulated RAC2, RHOG, RHOA, and CDC42 nucleotide exchange. Purified small G proteins were pre-loaded with GDP and then nucleotide exchange was monitored by the increase in fluorescence following mant-GTP binding in the absence and presence of A41 (5 μM) (N = 3). Kobs is expressed as mean ± SEM. ∗p < 0.001 vs. control. (C) Effect of A41 on RAC1 G30S activation. RAC1 G30S activation was monitored by the increase in fluorescence following mant-GTP binding in the absence and presence of A41 (5 μM). […] Data are expressed as mean ± SEM. (D) Immunoblot analysis and associated quantification of RAC-GTP level and total RAC expression in NIH-3T3 fibroblasts expressing RAC wild-type (RAC1 WT) or RAC1 oncomutants (RAC1 P29S and RAC1b) in the absence (Ctrl) and presence of A41 (10 μM). RAC activation was measured as the ratio of RAC-GTP to total RAC and expressed relative to Ctrl condition. […]
(§2) Pull-down assay using GST-PBD fusion proteins were performed on NIH-3T3 lysates to assess RAC1 activity as previously described.[63] The precipitated active RAC was subjected to SDS-PAGE and detected by immunoblot with anti-RAC1 antibody (BD biosciences) (dilution 1/1000).

RAC1 P29S = molecular target: T2, RAC1 P29S (Homo sapiens, UniProt P63000, P29S); assay: as above; format: cell-based; conditions: 10^-5 M
T2 construct: expressed in transfected cells; host or cells: NIH-3T3 fibroblasts
Method: as §1, §2

LRRK2(h) = LRRK2(h) (Homo sapiens, UniProt Q5S007); assay: Kinase Profiler; format: biochemical
Method: as §3

Adrenergic α2B = Adrenergic α2B (Homo sapiens, UniProt P18089); assay: Safety screen; format: binding
Chain of Adrenergic α2B (P18089 whole entry): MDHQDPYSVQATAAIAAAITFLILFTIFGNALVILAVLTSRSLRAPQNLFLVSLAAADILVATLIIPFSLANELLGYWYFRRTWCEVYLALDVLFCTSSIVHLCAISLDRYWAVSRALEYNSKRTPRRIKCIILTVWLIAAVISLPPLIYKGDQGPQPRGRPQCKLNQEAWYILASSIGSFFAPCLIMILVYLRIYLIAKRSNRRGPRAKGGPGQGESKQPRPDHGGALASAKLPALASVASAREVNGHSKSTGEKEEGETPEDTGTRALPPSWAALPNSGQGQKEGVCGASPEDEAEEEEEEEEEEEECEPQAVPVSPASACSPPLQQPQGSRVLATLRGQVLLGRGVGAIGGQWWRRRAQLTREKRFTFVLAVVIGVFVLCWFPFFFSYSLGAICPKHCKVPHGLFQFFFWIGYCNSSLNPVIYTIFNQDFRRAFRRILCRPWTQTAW
Method: Blood cell counts, kinase profiler, safety screen, bacterial cytotoxicity, Ames, micronucleus assays were performed by the company Eurofins (France).

SAPK2a(h) = SAPK2a(h) (Homo sapiens, UniProt Q16539); assay: Kinase Profiler; format: biochemical
Method: as §3

PIP4K2a(h) = PIP4K2a(h) (Homo sapiens, UniProt P48426); assay: Kinase Profiler; format: biochemical
Method: as §3

MINK(h) = MINK(h) (Homo sapiens, UniProt Q8N4C8); assay: Kinase Profiler; format: biochemical
Chain of MINK(h) (Q8N4C8 whole entry): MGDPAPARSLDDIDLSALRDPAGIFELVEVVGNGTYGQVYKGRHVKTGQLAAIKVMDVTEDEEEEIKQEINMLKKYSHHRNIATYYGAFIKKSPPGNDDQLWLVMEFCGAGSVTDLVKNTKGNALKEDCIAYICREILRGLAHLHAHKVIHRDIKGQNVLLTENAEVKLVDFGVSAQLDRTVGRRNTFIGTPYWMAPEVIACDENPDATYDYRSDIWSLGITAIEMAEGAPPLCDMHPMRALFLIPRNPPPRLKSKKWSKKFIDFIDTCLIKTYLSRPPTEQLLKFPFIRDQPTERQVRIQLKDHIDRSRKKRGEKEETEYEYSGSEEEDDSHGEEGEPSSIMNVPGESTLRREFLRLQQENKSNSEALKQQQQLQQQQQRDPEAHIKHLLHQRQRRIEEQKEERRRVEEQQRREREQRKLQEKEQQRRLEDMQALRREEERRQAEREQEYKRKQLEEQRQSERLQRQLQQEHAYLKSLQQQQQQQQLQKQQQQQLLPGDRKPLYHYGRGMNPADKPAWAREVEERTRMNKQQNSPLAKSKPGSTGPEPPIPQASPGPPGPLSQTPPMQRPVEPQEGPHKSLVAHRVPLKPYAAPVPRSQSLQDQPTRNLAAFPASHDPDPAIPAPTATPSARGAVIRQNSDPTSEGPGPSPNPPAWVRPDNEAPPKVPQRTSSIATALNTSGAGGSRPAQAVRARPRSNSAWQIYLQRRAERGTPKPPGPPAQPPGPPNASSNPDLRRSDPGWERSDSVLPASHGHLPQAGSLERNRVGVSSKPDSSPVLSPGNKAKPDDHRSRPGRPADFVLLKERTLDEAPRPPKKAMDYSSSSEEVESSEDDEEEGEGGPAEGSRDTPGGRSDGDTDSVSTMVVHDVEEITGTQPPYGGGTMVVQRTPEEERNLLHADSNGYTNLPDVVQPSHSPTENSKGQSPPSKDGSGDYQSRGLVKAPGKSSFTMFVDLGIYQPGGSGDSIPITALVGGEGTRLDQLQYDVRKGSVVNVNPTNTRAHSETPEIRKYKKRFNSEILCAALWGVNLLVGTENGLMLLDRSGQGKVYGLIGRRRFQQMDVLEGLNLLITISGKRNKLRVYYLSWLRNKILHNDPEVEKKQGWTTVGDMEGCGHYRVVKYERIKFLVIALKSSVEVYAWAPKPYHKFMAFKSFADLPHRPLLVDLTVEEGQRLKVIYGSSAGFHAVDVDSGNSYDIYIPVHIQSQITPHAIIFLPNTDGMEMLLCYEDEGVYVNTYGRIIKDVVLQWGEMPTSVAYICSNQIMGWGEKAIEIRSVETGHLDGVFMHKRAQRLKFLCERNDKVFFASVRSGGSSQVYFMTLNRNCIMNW
Method: as §3

Abl(m) = Abl(m) (Mus musculus, UniProt P00520); assay: Kinase Profiler; format: biochemical
Chain of Abl(m) (P00520 27-1123 limits assumed): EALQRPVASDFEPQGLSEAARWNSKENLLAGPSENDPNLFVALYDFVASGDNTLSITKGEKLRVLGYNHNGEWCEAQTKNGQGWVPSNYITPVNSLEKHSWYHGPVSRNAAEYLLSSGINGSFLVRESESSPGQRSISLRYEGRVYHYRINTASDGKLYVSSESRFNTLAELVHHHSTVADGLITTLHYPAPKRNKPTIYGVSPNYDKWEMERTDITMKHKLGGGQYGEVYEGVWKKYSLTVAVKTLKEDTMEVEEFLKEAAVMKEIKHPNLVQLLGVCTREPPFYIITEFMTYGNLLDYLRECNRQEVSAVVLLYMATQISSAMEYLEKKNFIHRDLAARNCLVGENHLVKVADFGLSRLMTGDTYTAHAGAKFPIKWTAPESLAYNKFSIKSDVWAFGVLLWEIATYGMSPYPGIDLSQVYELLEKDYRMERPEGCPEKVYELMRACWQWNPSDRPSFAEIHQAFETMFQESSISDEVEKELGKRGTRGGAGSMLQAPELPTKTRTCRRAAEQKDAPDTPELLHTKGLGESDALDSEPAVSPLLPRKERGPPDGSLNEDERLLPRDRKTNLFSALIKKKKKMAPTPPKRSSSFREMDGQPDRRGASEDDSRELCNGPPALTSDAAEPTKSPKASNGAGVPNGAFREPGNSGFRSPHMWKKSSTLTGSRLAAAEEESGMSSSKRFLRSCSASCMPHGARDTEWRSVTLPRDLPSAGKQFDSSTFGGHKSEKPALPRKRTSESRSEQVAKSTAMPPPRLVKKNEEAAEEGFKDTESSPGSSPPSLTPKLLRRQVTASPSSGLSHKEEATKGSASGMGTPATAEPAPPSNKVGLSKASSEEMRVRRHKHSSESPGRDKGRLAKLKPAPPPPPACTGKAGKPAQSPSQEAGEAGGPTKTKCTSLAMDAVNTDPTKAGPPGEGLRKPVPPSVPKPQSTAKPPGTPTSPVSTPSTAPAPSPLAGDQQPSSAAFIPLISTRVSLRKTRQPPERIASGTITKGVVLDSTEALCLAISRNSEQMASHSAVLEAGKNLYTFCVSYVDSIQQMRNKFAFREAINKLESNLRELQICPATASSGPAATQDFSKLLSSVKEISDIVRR
Method: as §3

PPARγ = PPARγ (Homo sapiens, UniProt P37231); assay: Safety screen; format: binding
Method: as §4

ASK1(h) = ASK1(h) (Homo sapiens, UniProt Q99683); assay: Kinase Profiler; format: biochemical
Method: as §4

EphA1(h) = EphA1(h) (Homo sapiens, UniProt P21709); assay: Kinase Profiler; format: biochemical
Method: as §3

EGFR(h) = EGFR(h) (Homo sapiens, UniProt P00533); assay: Kinase Profiler; format: biochemical
Method: as §3

SAPK4(h) = SAPK4(h) (Homo sapiens, UniProt O15264); assay: Kinase Profiler; format: biochemical
Chain of SAPK4(h) (O15264 whole entry): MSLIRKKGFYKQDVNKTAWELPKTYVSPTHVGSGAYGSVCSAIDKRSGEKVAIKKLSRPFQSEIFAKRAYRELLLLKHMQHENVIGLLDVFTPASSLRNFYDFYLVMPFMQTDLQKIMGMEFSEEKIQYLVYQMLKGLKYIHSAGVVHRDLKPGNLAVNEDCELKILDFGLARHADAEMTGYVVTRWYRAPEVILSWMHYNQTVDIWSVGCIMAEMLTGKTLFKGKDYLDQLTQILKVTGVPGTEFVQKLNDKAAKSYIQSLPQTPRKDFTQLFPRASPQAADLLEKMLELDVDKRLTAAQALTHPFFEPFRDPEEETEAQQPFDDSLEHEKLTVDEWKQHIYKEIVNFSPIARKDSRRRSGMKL
Method: as §3

HPK1(h) = HPK1(h) (Homo sapiens, UniProt Q92918); assay: Kinase Profiler; format: biochemical
Chain of HPK1(h) (Q92918 whole entry): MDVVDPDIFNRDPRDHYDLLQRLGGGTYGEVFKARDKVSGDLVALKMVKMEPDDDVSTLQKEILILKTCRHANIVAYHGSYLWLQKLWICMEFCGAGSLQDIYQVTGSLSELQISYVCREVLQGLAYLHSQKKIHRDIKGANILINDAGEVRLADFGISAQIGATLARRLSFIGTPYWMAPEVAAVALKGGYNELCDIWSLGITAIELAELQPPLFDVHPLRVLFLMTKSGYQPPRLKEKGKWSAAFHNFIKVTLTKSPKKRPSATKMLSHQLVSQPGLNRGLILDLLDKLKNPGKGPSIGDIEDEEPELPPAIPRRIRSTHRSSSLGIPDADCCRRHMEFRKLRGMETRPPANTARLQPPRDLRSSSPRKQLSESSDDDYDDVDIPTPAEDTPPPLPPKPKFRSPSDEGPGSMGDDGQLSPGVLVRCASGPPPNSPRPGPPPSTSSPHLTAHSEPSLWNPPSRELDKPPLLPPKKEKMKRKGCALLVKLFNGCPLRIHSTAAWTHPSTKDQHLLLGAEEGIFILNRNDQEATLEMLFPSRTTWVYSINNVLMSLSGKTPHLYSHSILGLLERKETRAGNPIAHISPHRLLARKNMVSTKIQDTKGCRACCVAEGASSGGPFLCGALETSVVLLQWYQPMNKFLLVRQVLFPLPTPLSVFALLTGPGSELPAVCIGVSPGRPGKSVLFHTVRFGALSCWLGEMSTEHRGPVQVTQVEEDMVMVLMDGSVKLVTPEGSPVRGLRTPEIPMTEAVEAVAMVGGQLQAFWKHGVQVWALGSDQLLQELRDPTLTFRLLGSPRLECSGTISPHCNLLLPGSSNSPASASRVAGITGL
Method: as §3

PKCι(h) = PKCι(h) (Homo sapiens, UniProt P41743); assay: Kinase Profiler; format: biochemical
Method: as §3

DNA-PK(h) = DNA-PK(h) (Homo sapiens, UniProt P78527); assay: Kinase Profiler; format: biochemical
Method: as §3

TRB2(h) = TRB2(h) (Homo sapiens, UniProt Q92519); assay: Kinase Profiler; format: biochemical
Method: as §3

MELK(h) = MELK(h) (Homo sapiens, UniProt Q14680); assay: Kinase Profiler; format: biochemical
Method: as §3

Met(h) = Met(h) (Homo sapiens, UniProt P08581); assay: Kinase Profiler; format: biochemical
Method: as §3

[1] = molecular target: ATPase, Na+/K+, Heart, Pig (Sus scrofa, UniProt P05024); assay: Safety screen; format: biochemical
Method: as §4

CaMKIδ(h) = CaMKIδ(h) (Homo sapiens, UniProt Q8IU85); assay: Kinase Profiler; format: biochemical
Method: as §3

PKBα(h) = PKBα(h) (Homo sapiens, UniProt P31749); assay: Kinase Profiler; format: biochemical
Method: as §3

Cannabinoid CB1 = Cannabinoid CB1 (Homo sapiens, UniProt P21554); assay: Safety screen; format: binding
GRK3(h) = GRK3(h) (Homo sapiens, UniProt P35626); assay: Kinase Profiler; format: biochemical
Method: as §4

PRAK(h) = PRAK(h) (Homo sapiens, UniProt Q8IW41); assay: Kinase Profiler; format: biochemical
Method: as §4

PI3K (p110b/p85a)(h) = PI3K (p110b/p85a)(h) (Homo sapiens, UniProt P42338); assay: Kinase Profiler; format: biochemical
Method: as §4

PKCθ(h) = PKCθ(h) (Homo sapiens, UniProt Q04759); assay: Kinase Profiler; format: biochemical
Chain of PKCθ(h) (Q04759 whole entry): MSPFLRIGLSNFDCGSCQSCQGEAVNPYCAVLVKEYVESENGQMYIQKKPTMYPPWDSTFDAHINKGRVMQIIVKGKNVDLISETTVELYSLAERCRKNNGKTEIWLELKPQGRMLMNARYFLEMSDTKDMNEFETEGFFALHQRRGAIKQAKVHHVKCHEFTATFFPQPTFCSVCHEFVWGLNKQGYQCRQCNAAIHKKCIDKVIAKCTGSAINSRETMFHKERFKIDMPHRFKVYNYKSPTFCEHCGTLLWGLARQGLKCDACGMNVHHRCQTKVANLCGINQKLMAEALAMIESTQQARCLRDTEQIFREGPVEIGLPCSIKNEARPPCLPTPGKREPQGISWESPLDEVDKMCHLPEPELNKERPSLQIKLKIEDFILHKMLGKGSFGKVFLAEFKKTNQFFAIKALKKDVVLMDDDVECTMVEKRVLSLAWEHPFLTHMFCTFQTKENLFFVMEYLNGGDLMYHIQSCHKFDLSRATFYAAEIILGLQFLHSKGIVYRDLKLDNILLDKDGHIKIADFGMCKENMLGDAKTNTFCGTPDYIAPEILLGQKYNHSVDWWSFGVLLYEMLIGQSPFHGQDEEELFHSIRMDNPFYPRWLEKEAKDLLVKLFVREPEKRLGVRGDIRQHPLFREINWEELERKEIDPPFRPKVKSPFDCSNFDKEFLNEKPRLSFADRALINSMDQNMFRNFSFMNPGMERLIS
Method: as §3

Potassium Channel hERG = Potassium Channel hERG (Homo sapiens, UniProt Q12809); assay: Safety screen; format: binding
Method: as §4

Progesterone PR-B = Progesterone PR-B (Homo sapiens, UniProt P06401); assay: Safety screen; format: binding
Method: as §4

CDK17/cyclinY(h) = CDK17/cyclinY(h) (Homo sapiens, UniProt Q00537); assay: Kinase Profiler; format: biochemical
Method: as §4

## COc1ccc(OC)c(NS(=O)(=O)c2ccc(NC(=O)CCSc3ccc(C)cc3)cc2)c1 [Compound A41]
CLIK1(h)
  Activity(%): 112%
IGF-1R(h)
  Activity(%): 100%
RAC1b
  activity of RAC1b (RAC-GTP): reduced the activity
RAC1 P29S
  activity of RAC P29S (RAC-GTP): reduced the activity
LRRK2(h)
  Activity(%): 111%
Adrenergic α2B
  % inh.: 9%
SAPK2a(h)
  Activity(%): 100%
PIP4K2a(h)
  Activity(%): 95%
MINK(h)
  Activity(%): 114%
Abl(m)
  Activity(%): 125%
PPARγ
  % inh.: -7%
ASK1(h)
  Activity(%): 94%
EphA1(h)
  Activity(%): 87%
EGFR(h)
  Activity(%): 115%
SAPK4(h)
  Activity(%): 104%
HPK1(h)
  Activity(%): 98%
PKCι(h)
  Activity(%): 93%
DNA-PK(h)
  Activity(%): 122%
TRB2(h)
  Activity(%): 104%
MELK(h)
  Activity(%): 107%
Met(h)
  Activity(%): 88%
[1]
  % inh.: -15%
CaMKIδ(h)
  Activity(%): 94%
PKBα(h)
  Activity(%): 108%
Cannabinoid CB1
  % inh.: 81%
GRK3(h)
  Activity(%): 106%
PRAK(h)
  Activity(%): 88%
PI3K (p110b/p85a)(h)
  Activity(%): 101%
PKCθ(h)
  Activity(%): 114%
Potassium Channel hERG
  % inh.: 22%
Progesterone PR-B
  % inh.: -16%
CDK17/cyclinY(h)
  Activity(%): 96%
